Assay results from US4260630A, “Skin diseases” (priority 1977, dated 1981).

Legend:
mice = details: hairless mice; cited from earlier work
Saccharomyces cerevisiae [1] = assay: Induction of cytoplasmic "petite" mutations in yeast; details: compared at the same survival level (10%)
Experimental: (§1) A wild-type strain 211-1aM (29) of Saccharomyces cerivisiae was used, and the following mutants derived from it: S24-12c rad2-20 deficient in excision repair and S25-13b rad9-4 likely to be blocked in a recombinational repair pathway; a double mutant S 2057NL-24 rad2-20 -rad9-4 clone B was obtained by tetrad analysis of a heterozygote [formula]
(§2) The media and culture conditions used were as described in D. Averbeck, E. Moustacchi, (1975) Biochim. Biophys. Acta, 395, 393-404.
(§3) 10^6 cells/ml in saline (0.9% NaCl) were treated for 30 minutes with the drugs at a final concentration of 10 μg/ml and 1.2% ethanol present.
A Philips HPW 125 culot Edison high pressure mercury lamp was used with maximal output at the wavelength 365 nm. The irradiation dose measured by actinometry was 10 J/m^2 per sec., using the following set up: 10 ml of actinometer solution (or the cell suspension, usually 1×10^6 cells/ml), stirred continuously by a magnetic stirrer, were irradiated at room temperature in an open Petri dish of 10 cm diameter at a distance of 10 cm from the center of the light bulb which was mounted horizontally. A 2 mm thick pyrex glass sheet (20×25 cm) was placed in the center of the light beam to cut out UV light of wavelength below 340 nm. […]

yeast RNA = assay: Photobinding to yeast RNA in vivo (radiolabelled drug plus 365 nm light); type: binding, Saccharomyces cerevisiae; details: for cpm for 10^8 cells: RNA; for Molecules 8-MOP/μg DNA / μg 8-MOP/μg DNA: binding to RNA
Experimental: (§4) The radioactivity of an aliquot (0.1 ml) of this solution was measured in 5 ml of scintillation mixture (Nuclear Entreprise, Ltd., Edinburgh, Scotland, NE 250).
(§5) For the in vivo determinations stationary phase cells of the haploid wild type strain N 123 were prepared as previously described.
(§6) 2 ml cell suspensions were exposed to several doses of 365 nm light. In parallel, non irradiated samples were incubated for the same periods. Immediately after incubation and/or irradiation, the samples were centrifuged and the pellet was washed 3 times with 5 ml of saline (0.9% NaCl). The washed cell pellet was resuspended in 1 ml of saline and 1 ml of 2 N NaOH was added in order to hydrolyze the RNA. The suspension was incubated overnight in the dark at room temperature, then cooled down on ice, and 2 ml of 50% TCA were added slowly. The samples were left 20 minutes on ice and the precipitated DNA was filtered on a glass fiber filter disc (Whatman GF/A, 2.1 cm diameter). In some cases the filtrate containing the acid-soluble material was kept aside, and the radioactivity of an aliquot added to 5 ml of NE250 scintillation mixture measured. The precipitate was washed 3 times with 5 ml of 5% cold TCA and 5 ml of 70% ethanol. The filters were then dried and the radioactivity measured in plastic counting vials containing 5 ml of scintillation mixture (NE 250) in a Tricarb Packard scintillation spectrophotometer.

yeast DNA [2] = assay: Melting and reassociation (cross-link formation) of yeast DNA treated in vitro plus 365 nm light; type: biochemical
Experimental: Measurement of the melting and reassociation characteristics of yeast DNA:
Biophys. […] The fractions containing the nuclear DNA were pooled and dialysed against a 0.1 M, pH 7 phosphate buffer. […] Unirradiated samples of DNA with or without the drugs were taken as references.
The cross-links formation of the two furocoumarins with native yeast DNA was tested by measuring the denaturation and renaturation pattern.

yeast DNA [3] = assay: Photobinding to yeast DNA in vivo (radiolabelled drug plus 365 nm light); type: binding, Saccharomyces cerevisiae
Experimental: as §4, §5, §6

Saccharomyces cerevisiae [4] = assay: Repair of photoinduced lesions in yeast (repair mutants, agar holding); type: cell-based
Excerpt: Biophys. Acta, 395, 393-404.
Consequently, it appears that the excision repair pathway in wild type and rad9-4 cells is essential in AHR for both compounds.

calf thymus DNA = assay: Photobinding to native calf thymus DNA in vitro; type: binding
Experimental: These determinations were done in vitro and in vivo. […] The thickness of the irradiated sample was 1 mm. After irradiation, the solution was diluted by a factor of 2, and NaCl was added to a final concentration of 1 M. The DNA was precipitated with 2 volumes of cold pure ethanol. The samples were left overnight in the cold at -20° C. The precipitate was then washed by centrifugation three times with 3 ml of 70% ethanol and redissolved in 3 ml of water. The DNA recovery was checked by determination of the optical density of the solution at 260 nm.

Saccharomyces cerevisiae [5] = test system: Saccharomyces cerevisiae
Experimental: as §1, §2, §3
A Philips HPW 125 culot Edison high pressure mercury lamp was used with maximal output at the wavelength 365 nm. The irradiation dose measured by actinometry was 10 J/m^2 per sec., using the following set up: 10 ml of actinometer solution (or the cell suspension, usually 1×10^6 cells/ml), stirred continuously by a magnetic stirrer, were irradiated at room temperature in an open Petri dish of 10 cm diameter at a distance of 10 cm from the center of the light bulb which was mounted horizontally. A 2 mm thick pyrex glass sheet (20×25 cm) was placed in the center of the light beam to cut out UV light of wavelength below 340 nm. Overheating was prevented either by a continuous flow of compressed air between the light bulb and the glass or by a pyrex glass water filter of 3 cm total thickness. An accumulative irradiation dose was given to the same sample. After each dose 0.1 ml of irradiated cell suspension was taken, diluted and aliquots plated.

[6] = 8-MOP, 15 min, 18.9 × 10^4 ergs.mm^-2 365 nm
[7] = 8-MOP, 30 min, 37.8 × 10^4 ergs.mm^-2 365 nm
[8] = 8-MOP, 60 min, 75.6 × 10^4 ergs.mm^-2 365 nm
[9] = 8-MOP, 90 min, 113.4 × 10^4 ergs.mm^-2 365 nm
[10] = 8-MOP, 120 min, 151.2 × 10^4 ergs.mm^-2 365 nm
[11] = 15 min, 18.9 × 10^4 ergs.mm^-2 365 nm
[12] = 30 min, 37.8 × 10^4 ergs.mm^-2 365 nm
[13] = 60 min, 75.6 × 10^4 ergs.mm^-2 365 nm
[14] = 90 min, 113.4 × 10^4 ergs.mm^-2 365 nm
[15] = 120 min, 151.2 × 10^4 ergs.mm^-2 365 nm
[16] = equimolar concentration to 3-CPs
[17] = 7.5 × 10^-5, 30 min, 37.8 erg. cm^-2 365 nm (so in the source)
[18] = 7.5 × 10^-5, 60 min, 75.6 erg. cm^-2 365 nm (so in the source)
[19] = 7.5 × 10^-5, 90 min, 113.4 erg. cm^-2 365 nm (so in the source)
[20] = 7.5 × 10^-5, 120 min, 151.2 erg. cm^-2 365 nm (so in the source)
[21] = 7.5 × 10^-5, 180 min, 226.8 erg. cm^-2 365 nm (so in the source)

COc1c2occc2cc2ccc(=O)oc12 [Example 8-MOP, 8-methoxypsoralen, reference compound]
cancerogenic power in combination with U.V. radiation (mice): high cancerogenic power | induction of cytoplasmic "petite" mutations (Saccharomyces cerevisiae [1]): less reactive | photoaffinity for RNA (yeast RNA): relatively low photoaffinity for RNA | cpm for 10^8 cells (yeast RNA; [6]): 7400 cpm for 10^8 cells | cpm for 10^8 cells (yeast RNA; [7]): 12920 cpm for 10^8 cells | cpm for 10^8 cells (yeast RNA; [8]): 23580 cpm for 10^8 cells | cpm for 10^8 cells (yeast RNA; [9]): 34150 cpm for 10^8 cells | cpm for 10^8 cells (yeast RNA; [10]): 44060 cpm for 10^8 cells | cpm for 10^8 cells (yeast RNA; 15-120 min, no 365 nm light): 3805 cpm for 10^8 cells | Molecules 8-MOP/μg DNA (yeast RNA; 15-120 min, no 365 nm light): 0.033 Molecules 8-MOP/μg DNA × 10^14 | μg 8-MOP/μg DNA (yeast RNA; 15-120 min, no 365 nm light): 0.12 μg 8-MOP/μg DNA × 10^-2 | Molecules 8-MOP/μg DNA (yeast RNA; [11]): 0.064 Molecules 8-MOP/μg DNA × 10^14 | μg 8-MOP/μg DNA (yeast RNA; [11]): 0.228 μg 8-MOP/μg DNA × 10^-2 | Molecules 8-MOP/μg DNA (yeast RNA; [12]): 0.11 Molecules 8-MOP/μg DNA × 10^14 | μg 8-MOP/μg DNA (yeast RNA; [12]): 0.40 μg 8-MOP/μg DNA × 10^-2 | Molecules 8-MOP/μg DNA (yeast RNA; [13]): 0.20 Molecules 8-MOP/μg DNA × 10^14 | μg 8-MOP/μg DNA (yeast RNA; [13]): 0.73 μg 8-MOP/μg DNA × 10^-2 | Molecules 8-MOP/μg DNA (yeast RNA; [14]): 0.29 Molecules 8-MOP/μg DNA × 10^14 | μg 8-MOP/μg DNA (yeast RNA; [14]): 1.05 μg 8-MOP/μg DNA × 10^-2 | Molecules 8-MOP/μg DNA (yeast RNA; [15]): 0.38 Molecules 8-MOP/μg DNA × 10^14 | μg 8-MOP/μg DNA (yeast RNA; [15]): 1.36 μg 8-MOP/μg DNA × 10^-2 | light dose dependence of binding with RNA (yeast RNA; [16]): increases linearly in the range of light doses used | reassociation of DNA after heat denaturation (yeast DNA [2]): a fraction of the DNA is capable to renature | cpm for 10^8 cells (yeast DNA [3]; [6]): 1161 cpm for 10^8 cells | cpm for 10^8 cells (yeast DNA [3]; [7]): 1474 cpm for 10^8 cells | cpm for 10^8 cells (yeast DNA [3]; [8]): 2805 cpm for 10^8 cells | cpm for 10^8 cells (yeast DNA [3]; [9]): 5582 cpm for 10^8 cells | cpm for 10^8 cells (yeast DNA [3]; [10]): 5572 cpm for 10^8 cells | Molecules 8-MOP/μg DNA (yeast DNA [3]; 15-120 min, no 365 nm light): 0.034 Molecules 8-MOP/μg DNA × 10^14 | cpm for 10^8 cells (yeast DNA [3]; 15-120 min, no 365 nm light): 404.75 cpm for 10^8 cells | μg 8-MOP/μg DNA (yeast DNA [3]; 15-120 min, no 365 nm light): 0.126 μg 8-MOP/μg DNA × 10^-2 | molecules linked to DNA per cell (yeast DNA [3]; 18.9×10^3 J/m^2, 5×10^-5 M): 0.5×10^6 molecules per cell | binding to DNA in vivo compared with in vitro (yeast DNA [3]; 365 nm light): much higher in the in vivo condition than in vitro | Molecules 8-MOP/μg DNA (yeast DNA [3]; [11]): 0.10 Molecules 8-MOP/μg DNA × 10^14 | μg 8-MOP/μg DNA (yeast DNA [3]; [11]): 0.36 μg 8-MOP/μg DNA × 10^-2 | Molecules 8-MOP/μg DNA (yeast DNA [3]; [12]): 0.13 Molecules 8-MOP/μg DNA × 10^14 | μg 8-MOP/μg DNA (yeast DNA [3]; [12]): 0.46 μg 8-MOP/μg DNA × 10^-2 | Molecules 8-MOP/μg DNA (yeast DNA [3]; [13]): 0.24 Molecules 8-MOP/μg DNA × 10^14 | μg 8-MOP/μg DNA (yeast DNA [3]; [13]): 0.86 μg 8-MOP/μg DNA × 10^-2 | Molecules 8-MOP/μg DNA (yeast DNA [3]; [14]): 0.48 Molecules 8-MOP/μg DNA × 10^14 | μg 8-MOP/μg DNA (yeast DNA [3]; [14]): 1.72 μg 8-MOP/μg DNA × 10^-2 | Molecules 8-MOP/μg DNA (yeast DNA [3]; [15]): 0.48 Molecules 8-MOP/μg DNA × 10^14 | μg 8-MOP/μg DNA (yeast DNA [3]; [15]): 1.72 μg 8-MOP/μg DNA × 10^-2 | light dose dependence of binding with DNA (yeast DNA [3]; [16]): increases linearly in the range of light doses used | dark repair by strain defective in excision (Saccharomyces cerevisiae [4]; agar holding): unable to perform a dark repair | interaction between rad2 and rad9 repair pathways (Saccharomyces cerevisiae [4]; plus 365 nm light): additive interaction | kinetics of agar holding recovery (AHR) (Saccharomyces cerevisiae [4]; wild-type cells): same kinetics of AHR | μg 8-MOP/μDNA (calf thymus DNA; 7.5 × 10^-5, 0-180 min incub. (dark)): 0.031×10^-4 μg 8-MOP/μDNA | Binding yield 8-MOP molecules/nucleotide (calf thymus DNA; [17]): 1/900 | μg 8-MOP/μDNA (calf thymus DNA; [17]): 7.3×10^-4 μg 8-MOP/μDNA | Binding yield 8-MOP molecules/nucleotide (calf thymus DNA; [18]): 1/532 | μg 8-MOP/μDNA (calf thymus DNA; [18]): 12.4×10^-4 μg 8-MOP/μDNA | Binding yield 8-MOP molecules/nucleotide (calf thymus DNA; [19]): 1/428 | μg 8-MOP/μDNA (calf thymus DNA; [19]): 15.4×10^-4 μg 8-MOP/μDNA | Binding yield 8-MOP molecules/nucleotide (calf thymus DNA; [20]): 1/386 | μg 8-MOP/μDNA (calf thymus DNA; [20]): 17.1×10^-4 μg 8-MOP/μDNA | Binding yield 8-MOP molecules/nucleotide (calf thymus DNA; [21]): 1.256 molecules/nucleotide | μg 8-MOP/μDNA (calf thymus DNA; [21]): 25.8×10^-4 μg 8-MOP/μDNA | cpm/μg DNA (calf thymus DNA; 8-MOP 7.5 × 10^-5, 0-180 min incub. (dark)): 0.24 cpm/μg DNA | cpm/μg DNA (calf thymus DNA; 8-MOP 7.5 × 10^-5, 30 min, 37.8 erg. cm^-2 365 nm (so in the source)): 56.3 cpm/μg DNA | cpm/μg DNA (calf thymus DNA; 8-MOP 7.5 × 10^-5, 60 min, 75.6 erg. cm^-2 365 nm (so in the source)): 95.7 cpm/μg DNA | cpm/μg DNA (calf thymus DNA; 8-MOP 7.5 × 10^-5, 90 min, 113.4 erg. cm^-2 365 nm (so in the source)): 118.8 cpm/μg DNA | cpm/μg DNA (calf thymus DNA; 8-MOP 7.5 × 10^-5, 120 min, 151.2 erg. cm^-2 365 nm (so in the source)): 131.5 cpm/μg DNA | cpm/μg DNA (calf thymus DNA; 8-MOP 7.5 × 10^-5, 180 min, 226.8 erg. cm^-2 365 nm (so in the source)): 198.5 cpm/μg DNA | photosensitization of cells compared with 3-CPs or angelicin (Saccharomyces cerevisiae [5]): more photosensitized | survivors (Saccharomyces cerevisiae [5]; saline, 5 min): 10^-5
